Patent US20080076827A1, “Treatment of Inflammatory Bowel Disease” (priority 2004, published 2008)

What was measured:
TNFα = test: LPS-induced TNF alpha release in mice; format: in vivo, Balb C ByJ mice; settings: oral route, 30 min before 1 mg/kg i.p. LPS; serum 2 hours after LPS; ELISA
Experimental: 7 week-old Balb C ByJ mice (24-28 g) were administered, either by i.p. (5 ml/kg) or oral (10 ml/kg) administration, with vehicle or test article. 30 minutes later these animals were challenged with an intraperitoneal injection of 1 mg/kg LPS. 2 hours after LPS challenge, blood samples were collected under light isoflurane anaesthesia into normal tubes by retro-orbital puncture. Samples were allowed to clot at room temperature and then spun at 6000 g for 3 min at 4° C. Serum was stored at −20° C. until use. Serum TNFα and IL-10 levels were analysed in duplicate by ELISA technique.

[1] = system: dextran sulphate-induced colonic inflammation; test: Dextran sulphate-induced IBD model; format: in vivo, BDF1 male mice; settings: rectal route twice a day for 5 days
Experimental: 8-10 week-old BDF1 male mice (˜30 g) were housed in normal conditions. At the start of the study, normal water was exchanged for a 2.5% dextran sulphate solution to induce colonic inflammation. Concurrently actarit and the positive control budesonide were administered rectally twice a day for 5 days. On day 6 the animals were sacrificed and the large intestine was removed. The lower two-thirds were assessed for histological severity (scoring system; 1 mild to 4 severe).

For `CC(=O)Nc1ccc(CC(=O)O)cc1` [actarit, 4-(acetylamino)benzeneacetic acid], the “inhibition of serum TNFalpha levels after intraperitoneal LPS administration” value (TNFα) was “dose-dependant inihibition of TNFalpha levels”, the “pathological and histological lesions” value ([1]; 2.5% dextran sulphate in drinking water, large intestine assessed day 6) was “can ameliorate pathological and histological lesions” and the “gross histological scores (scoring system; 1 mild to 4 severe)” value ([1]; 2.5% dextran sulphate, compared with 0.1 mg/kg rectal budesonide) was “reduced gross histological scores induced by dextran sulphate in the drinking water of BDF1 mice, over and above the effect seen for 0.1 mg/kg rectal budesonide”.
